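These data come from cells grown in 96-well plates and exposed to compound for 48 hours at five concentrations. GI50 is the concentration that inhibits growth by half. Definition used: TGI = concentration required for complete inhibition of growth.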
Columns and labels:
Assay in all cases: growth of human tumour cells (NCI), 48 h
786-0 renal = tested on: 786-0 renal
HOP-62 NSCLC = tested on: HOP-62 NSCLC
NCI-H226 lung = tested on: NCI-H226 lung
NCI-H460 lung = tested on: NCI-H460 lung
OVCAR-3 ovarian = tested on: OVCAR-3 ovarian
OVCAR-5 ovarian = tested on: OVCAR-5 ovarian
OVCAR-8 ovarian = tested on: OVCAR-8 ovarian
SK-OV-3 ovarian = tested on: SK-OV-3 ovarian
SW-620 colon = tested on: SW-620 colon
OVCAR-4 ovarian = tested on: OVCAR-4 ovarian

SMILES | GI50 (786-0 renal) [µM] | TGI (786-0 renal) [µM] | GI50 (HOP-62 NSCLC) [µM] | TGI (HOP-62 NSCLC) [µM] | GI50 (NCI-H226 lung) [µM] | TGI (NCI-H226 lung) [µM] | GI50 (NCI-H460 lung) [µM] | TGI (NCI-H460 lung) [µM] | TGI (OVCAR-3 ovarian) [µM] | TGI (OVCAR-5 ovarian) [µM] | TGI (OVCAR-8 ovarian) [µM] | GI50 (SK-OV-3 ovarian) [µM] | TGI (SK-OV-3 ovarian) [µM] | GI50 (SW-620 colon) [µM] | TGI (SW-620 colon) [µM] | GI50 (OVCAR-3 ovarian) [µM] | GI50 (OVCAR-4 ovarian) [µM] | TGI (OVCAR-4 ovarian) [µM] | GI50 (OVCAR-5 ovarian) [µM] | GI50 (OVCAR-8 ovarian) [µM]
COc1cc(Cc2c(C)cc(OC)c3[nH]c4ccccc4c23)cc2c1[nH]c1ccccc12 | 5.38 | 14.2 | 5.49 | 11 | 4.67 | 12.8 | 5.13 | 12.1 | 12.3 | 12.5 | 10.9 | 8.8 | > 25 | 8.09 | > 25 |  |  |  |  | 
O=C(O)c1c2c(cc3c(=O)c4ccccc4[nH]c13)CCCC2 |  | > 100 |  | > 100 |  | > 100 |  | > 100 | > 100 | > 100 | > 100 |  | > 100 |  | > 100 |  |  |  |  | 
CN1CCN(Cc2ccc(NC(=O)c3[nH]ncc3Nc3ncnc4[nH]ccc34)cc2)CC1 | 0.301 | 2 | 0.348 | 3.44 | 0.205 | 1.87 | 0.328 | 4.67 | 0.797 | 17.4 | 3.09 |  |  | 0.381 | 11.6 | 0.255 | 0.215 | 0.68 | 0.456 | 0.387
Fc1ccc2c(c1)C1=C(CCC2)C(c2ccc(Cl)cc2)NC(=S)N1 (centres undefined) | 25 | > 100 |  |  | 35.2 | > 100 | 32.7 | > 100 | > 100 | > 100 | > 100 | > 100 | > 100 | 39.1 | > 100 | 27.8 | 44.8 | > 100 | > 100 | 25.8
COC(=O)c1onc(C2OC(C)(C)OC2C(O)COC(c2ccccc2)(c2ccccc2)c2ccccc2)c1C(=O)OC (centres undefined) |  | > 100 |  | > 100 |  | > 100 |  |  | > 100 | > 100 | > 100 |  |  |  | > 100 |  |  | > 100 |  | 
CN1CCN(C(=O)c2ccc(NC(=O)Nc3ccc(-c4nc(N5CCOCC5)c5cccn5n4)cc3)cc2)CC1 | 0.0632 | 1.11 | 0.025 | 0.232 | 0.0306 | 0.345 | 0.0498 | 12 |  | 12.8 | > 100 | 0.0223 | 0.121 | 0.0634 | 12.1 |  | 0.0149 | 0.095 | 0.0439 | 0.0486
CCOC(=O)c1c(-c2ccccc2)[n+](=O)c2cc(F)c(F)cc2n1[O-] | 2.01 | 3.64 | 1.42 | 3.24 | 2.73 | 6.92 |  |  | 2.61 | 4.13 | 4.43 | 2.03 | 3.57 | 0.494 | 3.57 | 1.23 | 0.624 | 2.16 | 2.23 | 2.06

— PubChem BioAssay (NCI)
